Assays:
Assay in all cases: R-SAT broad profiling
Assay type in all cases: cell-based
[1] = target: T1, m5 (Homo sapiens, UniProt P08912); details: agonist; read-out: pEC50 or pIC50 (converted)
T1 construct: expressed in transfected cells; host or cells: NIH3T3
T1 sequence (P08912 1-532): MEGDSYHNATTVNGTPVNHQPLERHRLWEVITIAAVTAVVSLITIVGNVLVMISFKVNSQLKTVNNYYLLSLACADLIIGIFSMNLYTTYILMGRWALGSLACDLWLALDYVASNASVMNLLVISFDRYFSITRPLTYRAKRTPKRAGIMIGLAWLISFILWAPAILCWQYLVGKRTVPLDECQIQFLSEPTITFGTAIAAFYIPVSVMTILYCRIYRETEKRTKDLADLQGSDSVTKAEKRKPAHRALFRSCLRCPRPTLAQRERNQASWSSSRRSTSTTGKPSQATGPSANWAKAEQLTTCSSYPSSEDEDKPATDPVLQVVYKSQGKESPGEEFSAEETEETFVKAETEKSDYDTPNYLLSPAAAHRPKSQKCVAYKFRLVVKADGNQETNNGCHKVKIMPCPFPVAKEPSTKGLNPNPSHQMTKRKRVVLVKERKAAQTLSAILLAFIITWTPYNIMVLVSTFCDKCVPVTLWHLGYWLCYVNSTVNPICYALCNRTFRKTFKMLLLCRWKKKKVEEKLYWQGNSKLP
Description: (§1) The functional receptor assay, Receptor Selection and Amplification Technology (R-SAT), was used (with minor modifications from that previously described U.S. Pat. No. 5,707,798) to screen compounds for efficacy at the 5-HT2A receptor. Briefly, NIH3T3 cells were grown in 96 well tissue culture plates to 70-80% confluence. Cells were transfected for 12-16 hours with plasmid DNAs using superfect (Qiagen Inc.) as per manufacture's protocols. R-SAT's were generally performed with 50 ng/well of receptor and 20 ng/well of Beta-galactosidase plasmid DNA. All receptor and G-protein constructs used were in the pSI mammalian expression vector (Promega Inc) as described in U.S. Pat. No. 5,707,798. The 5HT2A receptor gene was amplified by nested PCR from brain cDNA using the oligodeoxynucleotides based on the published sequence (see Saltzman et. al. Biochem. Biophys. Res. Comm. 181:1469-78 (1991)). Large-scale transfections, cells were transfected for 12-16 hours, then trypsinized and frozen in DMSO. Frozen cells were later thawed, plated at 10,000-40,000 cells per well of a 96 well plate that contained drug. With both methods, cells were then grown in a humidified atmosphere with 5% ambient CO2 for five days. Media was then removed from the plates and marker gene activity was measured by the addition of the beta-galactosidase substrate ONPG (in PBS with 5% NP-40). The resulting colorimetric reaction was measured in a spectrophotometric plate reader (Titertek Inc.)at […]. All data were analyzed using the computer program XLFit (IDBSm). Efficacy is the percent maximal repression compared to repression by a control compound (ritanserin in the case of 5HT2A). pIC50 is the negative of the log(IC50), where IC50 is the calculated concentration in Molar that produces 50% maximal repression.
(§2) The R-SAT assay (described above in example 289) was used to investigate the selectivity of 4-(4-Fluoro-benzyl)-3-(4-isobutoxy-benzyl)-8-methyl-1-oxa-3,8-diaza-spiro[4.5]decan-2-one.

[2] = target: T2, oprk 1 (Homo sapiens, UniProt P41145); details: read-out: pEC50 or pIC50 (converted)
T2 construct: expressed in transfected cells; host or cells: NIH3T3
T2 sequence (P41145 whole entry): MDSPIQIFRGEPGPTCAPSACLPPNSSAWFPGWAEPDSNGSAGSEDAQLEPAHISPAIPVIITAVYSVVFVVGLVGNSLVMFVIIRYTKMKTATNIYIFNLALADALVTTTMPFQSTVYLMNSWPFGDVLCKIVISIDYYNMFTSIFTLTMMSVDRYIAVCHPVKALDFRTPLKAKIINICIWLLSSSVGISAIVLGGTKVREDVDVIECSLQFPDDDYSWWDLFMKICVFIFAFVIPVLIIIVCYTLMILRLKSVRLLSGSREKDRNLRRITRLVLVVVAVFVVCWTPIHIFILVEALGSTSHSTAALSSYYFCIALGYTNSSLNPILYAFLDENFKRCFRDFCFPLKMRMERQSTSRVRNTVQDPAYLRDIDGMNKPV
Description: as §1, §2

[3] = target: T3, m1 (Homo sapiens, UniProt P11229); details: agonist; read-out: pEC50 or pIC50 (converted)
T3 construct: expressed in transfected cells; host or cells: NIH3T3
T3 sequence (P11229 1-460): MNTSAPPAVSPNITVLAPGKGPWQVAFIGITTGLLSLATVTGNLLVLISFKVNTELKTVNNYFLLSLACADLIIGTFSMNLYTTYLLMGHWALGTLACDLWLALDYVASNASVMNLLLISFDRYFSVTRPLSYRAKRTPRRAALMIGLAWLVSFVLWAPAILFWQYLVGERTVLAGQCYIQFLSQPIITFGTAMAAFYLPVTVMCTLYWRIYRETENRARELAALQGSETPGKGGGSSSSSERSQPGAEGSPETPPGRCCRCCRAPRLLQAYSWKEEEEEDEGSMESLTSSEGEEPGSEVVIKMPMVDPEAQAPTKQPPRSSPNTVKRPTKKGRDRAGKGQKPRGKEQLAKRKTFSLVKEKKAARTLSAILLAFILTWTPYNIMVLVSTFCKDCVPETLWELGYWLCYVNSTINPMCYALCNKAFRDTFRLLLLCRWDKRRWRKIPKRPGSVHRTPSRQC
Description: as §1, §2

[4] = target: T4, m4 (Homo sapiens, UniProt P08173); details: agonist; read-out: pEC50 or pIC50 (converted)
T4 construct: expressed in transfected cells; host or cells: NIH3T3
T4 sequence (P08173 1-479): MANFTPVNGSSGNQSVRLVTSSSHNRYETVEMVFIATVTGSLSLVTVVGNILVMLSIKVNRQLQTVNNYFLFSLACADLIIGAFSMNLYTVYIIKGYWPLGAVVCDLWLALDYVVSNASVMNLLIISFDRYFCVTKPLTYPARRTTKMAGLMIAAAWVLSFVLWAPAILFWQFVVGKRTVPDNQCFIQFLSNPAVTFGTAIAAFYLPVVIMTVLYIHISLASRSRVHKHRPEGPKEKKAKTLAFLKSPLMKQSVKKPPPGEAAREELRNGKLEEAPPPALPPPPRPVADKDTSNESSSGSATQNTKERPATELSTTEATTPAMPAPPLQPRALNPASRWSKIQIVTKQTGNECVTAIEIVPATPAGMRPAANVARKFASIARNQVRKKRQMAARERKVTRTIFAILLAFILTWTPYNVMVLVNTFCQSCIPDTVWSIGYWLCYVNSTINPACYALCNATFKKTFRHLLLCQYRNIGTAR
Description: as §1, §2

[5] = target: T5, alpha 1B (Mesocricetus auratus, UniProt P18841); details: read-out: pEC50 or pIC50 (converted)
T5 construct: expressed in transfected cells; host or cells: NIH3T3
T5 sequence (P18841 whole entry): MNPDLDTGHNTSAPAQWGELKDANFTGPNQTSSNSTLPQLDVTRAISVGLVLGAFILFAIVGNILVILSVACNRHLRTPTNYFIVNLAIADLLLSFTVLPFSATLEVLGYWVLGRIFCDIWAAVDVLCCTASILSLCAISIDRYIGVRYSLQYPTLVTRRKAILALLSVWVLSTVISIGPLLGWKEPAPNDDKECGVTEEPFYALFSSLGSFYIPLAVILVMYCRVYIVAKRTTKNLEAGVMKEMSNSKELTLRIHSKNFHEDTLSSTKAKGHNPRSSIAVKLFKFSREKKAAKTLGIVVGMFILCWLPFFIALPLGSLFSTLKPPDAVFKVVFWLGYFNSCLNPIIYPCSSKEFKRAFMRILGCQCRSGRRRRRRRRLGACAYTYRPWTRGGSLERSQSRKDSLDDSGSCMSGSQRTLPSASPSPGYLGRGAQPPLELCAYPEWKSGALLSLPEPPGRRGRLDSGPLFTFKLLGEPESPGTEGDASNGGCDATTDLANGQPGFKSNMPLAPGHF
Description: as §1, §2

[6] = target: T6, D1 (Homo sapiens, UniProt P21728); details: read-out: pEC50 or pIC50 (converted)
T6 construct: expressed in transfected cells; host or cells: NIH3T3
T6 sequence (P21728 whole entry): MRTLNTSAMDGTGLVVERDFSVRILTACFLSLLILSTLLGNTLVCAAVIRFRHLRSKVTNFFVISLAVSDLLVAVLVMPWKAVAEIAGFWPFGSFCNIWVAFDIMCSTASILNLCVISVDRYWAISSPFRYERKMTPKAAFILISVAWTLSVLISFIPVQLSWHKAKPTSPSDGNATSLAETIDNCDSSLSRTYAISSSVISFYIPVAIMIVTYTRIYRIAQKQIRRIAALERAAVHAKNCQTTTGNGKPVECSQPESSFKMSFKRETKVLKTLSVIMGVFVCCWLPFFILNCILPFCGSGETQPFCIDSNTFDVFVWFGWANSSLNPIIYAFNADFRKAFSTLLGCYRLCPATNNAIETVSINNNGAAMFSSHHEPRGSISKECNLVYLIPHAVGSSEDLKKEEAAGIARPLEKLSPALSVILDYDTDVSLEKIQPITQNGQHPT
Description: as §1, §2

CC(C)COc1ccc(CN2C(=O)OC3(CCN(C)CC3)C2Cc2ccc(F)cc2)cc1.Cl (racemic) [Example 69NLS75, 4-(4-Fluorobenzyl)-3-(4-isobutoxybenzyl)-8-methyl-1-oxa-3,8-diazaspiro[4.5]decan-2-one, hydrochloride]
> 3.16 µM: EC50 [1] | EC50 ([2]; agonist) | IC50 ([2]; antagonist) | EC50 [3] | EC50 [4] | EC50 ([5]; agonist) | IC50 ([5]; antagonist) | EC50 ([6]; agonist) | IC50 ([6]; antagonist)

Reference: patent publication US20080051429A1, “USE OF 4-AMINO-PIPERIDINES FOR TREATING SLEEP DISORDERS” (priority 2006, published 2008)
